Experimental data from US9018173B2, “Materials and methods for suppressing inflammatory and neuropathic pain” (Indiana University Research and Technology Corp., priority 2010, dated 2015).
Residues, ends and D or L forms follow the SMILES beside them.

Tests used:
[1] = test system: anxiety-associated behavior; experiment: Light-Dark Box test (LDBT); type: in vivo, C57BL6 mice; details: for Light-Dark Box: Dark box latency to exit / Light-Dark Box: Light box entries: C57BL6 mice, 1 h after injection, 5 min test
Procedure: The light-dark box test and the elevated plus maze were used as measures of anxiety-associated behaviors. The tail suspension test was performed to evaluate despair- and depression-associated behavior. Anxiety-behavior testing Anxiety occurs when there is conflict between risk and reward. The Light-Dark Box test (LDBT) and the elevated plus maze (EPM) are accepted tests of anxiety-associated behavior that assess the conflict mice have against hiding in enclosed dark areas (i.e., dark box or closed arm) and their tendency to explore novel environments (i.e., white box or open arm). Lalonde, R. & Strazielle, C. […] J. Neurosci. Methods. 171, 48-52 (2008). These tests are also sensitive to anxiolytic drug treatments. Light-Dark Box test as a measure of anxiety-associated behavior. For the light-dark box test (LDBT), there were two adjoined light and dark compartments boxes with a 7 cm square opening to allow mice to move between them. The black box was covered (20 cm×40 cm×30 cm height) and the white box (20 cm×40 cm×30 cm height) was open and illuminated (40 W). Each mouse was placed into the white compartment and the white compartment was video recorded for later analyses using ANY-maze software (version 4.75, Stoelting, Wood Dale, Ill.) which is a video tracking system designed to automate testing in behavioral experiments. The main parameters were duration of time spent in the light box; the latency to enter the dark box; and the number of transitions between the light and dark box.

[2] = test system: tail kinking and body contortion; experiment: Observation of side-effects after i.p. injection in mice; type: in vivo
From the text: Referring now to FIG. 24. Biodistribution and side-effects of TAT-CBD3. […] Oxygenated blood was collected from a cardiac puncture. […] The 95% confidence limits are also indicated.
The possible effects of TAT-CBD3 on motor coordination, locomotor function, sedation (rotarod test) and hippocampal-dependent memory (Morris water-maze test) was investigated.

[3] = test system: CaV2.2 cytosolic loop 1 (L1) and distal C-terminus (Ct-dis); experiment: Surface plasmon resonance binding to CaV2.2 L1- and Ct-dis-GST fusion proteins; set-up: species or system rat; details: peptide 1/3/5 μM
From the text: In Vitro Protein Binding Assays. Using Vector NTI (v. 11; Invitrogen) software, primers were designed to amplify regions corresponding to the first cytoslic loop (L1; amino acids 356 to 483) and the distal end of the C-terminus (Ct-dis; amino acids 2133 to 2348) of rat CaV2.2 cDNA from P3 rat brain cDNA. The primers harbored restriction sites (Bam HI or Bgl II (5′) and Eco RI or Mfe I (3′)) to facilitate cloning into […]. In addition to the GST-tag, this vector contains the Glu tag, a sequence of six amino acids (EYMPME). Correctly-amplified PCR products and parent pGex-3x-Glu vector were digested with the indicated restriction enzymes, and then extracted following electrophoresis on an agarose gel. The extracted DNAs were quantified (Nanodrop 1000, Thermo Scientific), and ligations were performed using 6:1 and 3:1 insert to vector molar ratios. […]
Surface Plasmon resonance (SPR). Binding analyses between TAT CBD3 or TAT control peptides and CaV2.2 L1- or Ct-dis-GST fusion proteins was determined by surface plasmon resonance using a BIAcore3000 instrument (Biacore AB, Uppsala, Sweden). […]
Biochemistry and immunocytochemistry experiments. […] The binding between TAT CBD3 or TAT control peptides and CaV2.2 L1- or Ct-dis-GST fusion proteins was determined by surface plasmon resonance using a BIAcore3000 instrument (Biacore AB, Uppsala, Sweden).

For `CC(C)C[C@H](NC(=O)CNC(=O)[C@H](CCCNC(=N)N)NC(=O)[C@@H]1CCCN1C(=O)[C@@H](NC(=O)CNC(=O)[C@H](CCCNC(=N)N)NC(=O)[C@H](CC(C)C)NC(=O)[C@H](CCC(=O)O)NC(=O)[C@H](C)NC(=O)[C@H](CC(C)C)NC(=O)[C@H](CCCNC(=N)N)NC(=O)[C@H](CO)NC(=O)[C@H](CCCNC(=N)N)NC(=O)[C@H](C)NC(=O)[C@H](CCCNC(=N)N)NC(=O)[C@H](CCCNC(=N)N)NC(=O)[C@H](CCCNC(=N)N)NC(=O)[C@H](CCC(N)=O)NC(=O)[C@H](CCCNC(=N)N)NC(=O)[C@H](CCCNC(=N)N)NC(=O)[C@H](CCCCN)NC(=O)[C@H](CCCCN)NC(=O)[C@H](CCCNC(=N)N)NC(=O)CNC(=O)[C@@H](N)Cc1ccc(O)cc1)C(C)C)C(=O)O` [TAT-CBD3] (H-YGRKKRRQRRRARSRLAELRGVPRGL-OH; N-terminus and C-terminus assumed), the “LDBT number of transitions between the light and dark box” value ([1]; 1 mg/kg, compared to TAT-Scramble) was “increased”, the “Light-Dark Box: Dark box latency to exit” value ([1]; 0.1 mg/kg i.p.) was 66.0 ± 17.3 s and the “Light-Dark Box: Light box entries” value ([1]; 0.1 mg/kg i.p.) was 10.6 ± 1.2. For the same compound, the “Light-Dark Box: Dark box latency to exit” value ([1]; 1 mg/kg i.p.) was 36.9 ± 5.8 s, the “Light-Dark Box: Light box entries” value ([1]; 1 mg/kg i.p.) was 13.5 ± 1.1 and the “Light-Dark Box: Dark box latency to exit” value ([1]; 10 mg/kg i.p.) was 49.5 ± 9.6 s. The “Light-Dark Box: Light box entries” value ([1]; 10 mg/kg i.p.) was 11.5 ± 1.2, the “side-effects immediately following injection” value ([2]; 10 and 50 mg/kg) was “A single episode of kinking at the base of the tail and whole body contortion was observed in mice” and the tail kinking episodes ([2]; n=7 each condition) was “only a single episode of tail kinking movement was observed in the mice”. The “dose giving mild motor impairment relative to dose required to reduce hypersensitivity in vivo” value ([2]; transient tail kinking and body contortion) was “more than 50 fold” and the body contortion ([2]; up to 50 mg/kg, n=7) was “no body contortion was observed in mice”.
ARSRLAELRGVPRGL (CBD3) was tested, and the “binding to immobilized L1 and Ct-dis proteins (surface plasmon resonance)” value [3] was “bound to immobilized L1 and Ct-dis proteins”.
